Source: the supplement of paper PMC11451515

Test system: P12-Ichikawa
Test: cell viability relative to DMSO control; higher = less cytotoxic
Details: 48 h
In short: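 Cells were incubated for 48 h at 37°C before CellTiter-Glo One luminescence was read. The cells were NOMO1 or SEM (500 cells/well) or P12-Ichikawa (1000 cells/well) leukemia cells, adapted for at least four passages in each medium and seeded in 1536-well plates (5 μl). Dosing used library compounds in DMSO applied by pin over 11 threefold points, 47 μM to 0.79 nM. Viability is the per-plate percentage of DMSO wells, with cell-free wells as background.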

[1] = HPLM + 10% dialyzed FBS, 0.000781 µM
[2] = HPLM + 10% dialyzed FBS, 0.00234 µM
[3] = HPLM + 10% dialyzed FBS, 0.00702 µM
[4] = HPLM + 10% dialyzed FBS, 0.0211 µM
[5] = HPLM + 10% dialyzed FBS, 0.0632 µM
[6] = HPLM + 10% dialyzed FBS, 0.19 µM
[7] = HPLM + 10% dialyzed FBS, 0.569 µM
[8] = HPLM + 10% dialyzed FBS, 1.71 µM
[9] = HPLM + 10% dialyzed FBS, 5.12 µM
[10] = HPLM + 10% dialyzed FBS, 15.4 µM
[11] = HPLM + 10% dialyzed FBS, 46.1 µM
[12] = RPMI 5 mM glucose + 10% FBS, 0.000781 µM
[13] = RPMI 5 mM glucose + 10% FBS, 0.00234 µM
[14] = RPMI 5 mM glucose + 10% FBS, 0.00702 µM
[15] = RPMI 5 mM glucose + 10% FBS, 0.0211 µM
[16] = RPMI 5 mM glucose + 10% FBS, 0.0632 µM
[17] = RPMI 5 mM glucose + 10% FBS, 0.19 µM
[18] = RPMI 5 mM glucose + 10% FBS, 0.569 µM
[19] = RPMI 5 mM glucose + 10% FBS, 1.71 µM
[20] = RPMI 5 mM glucose + 10% FBS, 5.12 µM
[21] = RPMI 5 mM glucose + 10% FBS, 15.4 µM
[22] = RPMI 5 mM glucose + 10% FBS, 46.1 µM
[23] = RPMI 5 mM glucose + 10% dialyzed FBS, 0.000781 µM
[24] = RPMI 5 mM glucose + 10% dialyzed FBS, 0.00234 µM
[25] = RPMI 5 mM glucose + 10% dialyzed FBS, 0.00702 µM
[26] = RPMI 5 mM glucose + 10% dialyzed FBS, 0.0211 µM
[27] = RPMI 5 mM glucose + 10% dialyzed FBS, 0.0632 µM
[28] = RPMI 5 mM glucose + 10% dialyzed FBS, 0.19 µM
[29] = RPMI 5 mM glucose + 10% dialyzed FBS, 0.569 µM
[30] = RPMI 5 mM glucose + 10% dialyzed FBS, 1.71 µM
[31] = RPMI 5 mM glucose + 10% dialyzed FBS, 5.12 µM
[32] = RPMI 5 mM glucose + 10% dialyzed FBS, 15.4 µM
[33] = RPMI 5 mM glucose + 10% dialyzed FBS, 46.1 µM

SMILES	cell viability [1]	cell viability [2]	cell viability [3]	cell viability [4]	cell viability [5]	cell viability [6]	cell viability [7]	cell viability [8]	cell viability [9]	cell viability [10]	cell viability [11]	cell viability [12]	cell viability [13]	cell viability [14]	cell viability [15]	cell viability [16]	cell viability [17]	cell viability [18]	cell viability [19]	cell viability [20]	cell viability [21]	cell viability [22]	cell viability [23]	cell viability [24]	cell viability [25]	cell viability [26]	cell viability [27]	cell viability [28]	cell viability [29]	cell viability [30]	cell viability [31]	cell viability [32]	cell viability [33]
CN1[C@@H]2CC(O)C[C@H]1[C@@H]1O[C@@H]12 (stereo partly specified)	122%	121%	124%	105%	119%	115%	119%	120%	114%	119%	6.79%	122%	113%	123%	119%	135%	121%	119%	125%	107%	104%	18.3%	118%	119%	127%	112%	125%	120%	120%	113%	106%	120%	4.64%
COc1cc(N2CCC(N3CCN(C)CC3)CC2)ccc1Nc1ncnc(Nc2ccccc2[S+](=O)([O-])C(C)C)n1	113%	117%	120%	125%	97.9%	128%	122%	117%	115%	90.1%	28.4%	97.4%	90.7%	100%	110%	74.5%	112%	106%	103%	103%	91.2%	44.9%	112%	97%	118%	119%	84%	125%	120%	119%	114%	83.4%	47.3%
CN(C)c1nc(N(C)C)nc(N(C)C)n1	108%	108%	104%	104%	101%	103%	94.4%	94.3%	89.6%	94%	83.5%	103%	100%	98.3%	95.9%	90.5%	93.9%	98.8%	87.2%	87.9%	89.9%	93.2%	90.3%	99.9%	95.5%	99.6%	97.1%	91.6%	91.9%	85%	87.9%	90.7%	86.8%
CN1C(=O)COc2c(C(=O)NC3CN4CCC3CC4)cc(Cl)cc21 (stereo unspecified)	87.1%	107%	104%	105%	109%	109%	99.6%	96.9%	94.2%	107%	111%	95%	115%	110%	119%	132%	73%	66.4%	86.1%	95.7%	95.6%	121%	95.8%	98.4%	101%	97.8%	101%	95.4%	98.9%	96.9%	92.6%	89.2%	99%
C[C@H]1[C@@H](CC(C[C@H]2O[C@@H]3O[C@]4(C)CC[C@H]5[C@H](C)CC[C@@H]([C@H]2C)[C@@]35OO4)C[S+](=O)([O-])c2ccc(COC(=O)N(C)C)cc2)O[C@@H]2O[C@]3(C)CC[C@H]4[C@H](C)CC[C@@H]1[C@@]24OO3	114%	111%	103%	117%	110%	102%	85.5%	55.5%	49.7%	39%	13.8%	114%	122%	113%	122%	113%	116%	81.7%	52%	53.2%	33.5%	21.8%	118%	110%	107%	110%	103%	106%	50.7%	41.7%	36.9%	39.7%	35%
N=C(N)c1ccc(OCCCCCOc2ccc(C(=N)N)cc2)cc1	101%	108%	108%	110%	111%	102%	101%	103%	106%	97.1%	79.5%	104%	109%	109%	114%	116%	111%	107%	104%	117%	85.3%	62.8%	101%	115%	123%	125%	118%	114%	118%	108%	107%	102%	81.5%
COC1=CC=C(C=C1)C/2=C/OC3=CC(=CC=C3C2=O)O	122%	116%	114%	112%	124%	111%	115%	102%	106%	104%	96.7%	120%	120%	115%	120%	121%	112%	118%	111%	113%	114%	103%	116%	111%	115%	118%	108%	105%	117%	104%	108%	96.2%	101%
